Experimental data reported in US20260240999A1, “METHODS FOR EX VIVO ENRICHMENT AND EXPANSION OF TUMOR REACTIVE T CELLS AND RELATED COMPOSITIONS THEREOF” (H. LEE MOFFITT CANCER CENTER AND RESEARCH INSTITUTE, INC., priority 2022, published 2026).
“Also recorded” adds a separate entry of the source. Residues, ends and D or L forms follow the SMILES beside them. *: point of attachment. Cbz = O=C(OCc1ccccc1)*; CH2F = FC*

Assays:
[1] = system: T-cells from three healthy donors; test: Post-stimulation CD4+ and CD8+ activation markers by flow cytometry; assay type: cell-based, human; conditions: 50 ng/ml OKT3 vs no OKT3, 48 hours, CD38, CD39, CD134, CD137, CD69, CD90
Method: Specific markers of activation on the CD4+ and CD8+ cell populations were measured using flow cytometry over a time course of 3-48 hours. Specifically, the following markers were assessed: CD38 and CD39 (FIG. 12A and FIG. 13A), CD134 and CD137 (FIG. 12B and FIG. 13B), and CD69 and CD90 (FIG. 12C and FIG. 13C).

[2] = system: cells processed from melanoma tumor fragments; test: Anti-CD3 stimulation on expansion of tumor-derived cells; assay type: cell-based, human; conditions: presence or absence of 50 ng/mL OKT3; 14-31 days
Method: Cells processed from melanoma tumor fragments as described in Examples 1 and 2, were cultured in the presence or absence of 50 ng/mL OKT3, a human anti-CD3 monoclonal antibody. Cell cultures were carried out to between 14 and 31 days, such as between 14 and 21 days, in either a conventional 6-well plate or a gas permeable culture plate with RPMI or OpTmizer media. […] About 50% of cellular media was exchanged every other day beginning on the 5th day of culture as described previously. Cells were then counted using the NC-200 Automated Cell Counter (Chemometec).

[3] = system: PBMC from two healthy donors; test: Checkpoint modulators and costimulatory agonist antibodies on T cell phenotype; assay type: cell-based, human
Method: Cells were then seeded into a 24-well gas permeable cell culture plate at a density of 5.0×10^5 cells/cm^2. Cells were activated for 48 hours using 50 ng/ml OKT3, a human anti-CD3 monoclonal antibody, and were additionally treated with agents as described below. Following 48 hours in culture, cells were analyzed for phenotype.
Cells were divided into 6 treatment groups, as follows: Ipilimumab (anti-CTLA4), Pembrolizumab (anti-PD1), Tavolixizumab (anti-TNFRSF4), Urelumab (anti-CD137), and Varlilumab (anti-CD27), as well as a no added agent control. For all test groups, cells in each treatment group were cultured in the presence of the monoclonal antibodies at 0.5, 1, 10, or 20 μg/mL.
None of the tested antibodies appeared to affect the memory differentiation state of the T cells. T cell phenotype was assessed for CD4+ and CD8+ cells independently via flow cytometry for markers of activation OX40, 41BB, CD107a, and PD1. Results are shown in FIG. 38 (CD3+), FIG. 39 (CD4+) and FIG. 40 (CD8+).

[4] = system: previously expanded human T cells from three healthy donors; test: Cytokines, modulators and agonist antibodies with IL-2 on T cell number and memory phenotype; assay type: cell-based
Method: PBMC from three healthy donors were activated, expanded, and cryopreserved as described in Example 11. […] As previously described, stimulation of the healthy donor T cells prior to cryopreservation were carried out with anti-CD3 (OKT3) stimulation in order to mimic conditions present in the tumor microenvironment (TME).
Cells were next seeded into gas permeable 100M culture vessels and expanded for 7-14 days to achieve a large bank of T cells, and cryopreserved.
Cells were maintained in culture for 6 days, with a 50% medium exchange occurring at 3 days post culture initiation.
At the end of the culture period for all culture conditions, cells were assessed for cell count and sub-phenotypes of naïve and central memory T cells by flow cytometry by staining with CD45RA and CCR7 (naïve, CD45RA+ CCR7+; “central” memory, CD45RA-CCR7+).

[5] = system: previously expanded human T cells from three healthy donors; test: Effect of T cell adjuvants on T cell viability (total viable CD3+ cell count); assay type: cell-based; conditions: for viable cell counts: vs DMSO treatment control, irrespective of activation status, 6 days
Method: Cells were expanded from PBMC derived from Ficoll gradient separation from three healthy donor's apheresis material. […] Because the studies were carried out in healthy donors, stimulation of the T cells was carried out with anti-CD3 (OKT3) stimulation in order to mimic conditions present in the tumor microenvironment (TME).
Cells were next seeded into gas permeable 100M culture vessels and expanded for 7-14 days to achieve a large bank of T cells, and cryopreserved. […] Half of wells were additionally supplemented with 50 ng/mL OKT3, a human anti-CD3 monoclonal antibody. In total, 15 test adjuvant agents were tested for their impact on cell viability in the presence and absence of anti-CD3 activation (see Table E3). Cells were cultured for 6 days total, including a 50% medium exchange on culture day 3, and monitored for total viable CD3+ cell count.

[6] = system: PBMC from three healthy donors; test: T cell expansion with Fas ligand or caspase inhibition, anti-CD3 stimulation; assay type: cell-based, human; conditions: OKT3 activation
Method: Cells were then seeded into a 24-well gas permeable cell culture plate at a density of 2.14×10^5 cells/mL (7.5×10^5 cells/cm^2). Cells were activated for 48 hours using 50 ng/ml OKT3, a human anti-CD3 monoclonal antibody, and were additionally treated with agents as described below.
Culture wells were assigned to one of five treatment groups, as follows: (1) a no inhibitor culture control which contained only cellular media as described with no additional apoptotic modulator; (2) 2 μM of the pan-caspase inhibitor Z-VAD-FMK added to the media only on culture day 0 (transient); (3) 2 μM of the pan-caspase inhibitor Z-VAD-FMK added on culture day 0 and additionally replenished at the same concentration with each media exchange (continuous); (4). 500 ng/ml of Fas ligand (FasL) blocking antibody NOK-1 (BioLegend) added to the culture media only on day 0 (transient); or (5) 500 ng/ml of Fas ligand (FasL) blocking antibody NOK-1 (BioLegend) added to the culture media […] replenished each media exchange (continuous inhibition).
Cultures were maintained for at least 13 days with a 50% media exchange every other day beginning on culture day 2. Cell counts and viability were monitored every other day. […]

[7] = system: PBMC from two healthy donors; test: T cell expansion with Fas ligand or caspase inhibition, anti-CD3/anti-CD28 stimulation; assay type: cell-based, human; conditions: continuous anti-CD3/anti-CD28 activation
Method: Cells were then seeded into a 24-well gas permeable cell culture plate at a density of 1.5×10^5 cells/mL (5.0×10^5 cells/cm^2).
Culture wells were assigned to one of two treatment groups, transient or continuous activation. For transient activation, anti-CD3/anti-CD28 paramagnetic beads (Dyanbeads™) were added to the culture media at a ratio of 1 bead per cell starting on culture day 0, and then were removed during media exchange on day 2. For continuous activation, anti-CD3/anti-CD28 paramagnetic beads (Dyanbeads™) were added to the culture media at a ratio of 1 bead per cell starting on culture day 0, and then added again on Day 4, and again on Day 6 at a ratio of 1 bead per cell. The anti-CD3/anti-CD28 paramagnetic beads were not removed on Day 2, 4 or 6.
For both the continuous and transient activation, culture wells were assigned to one of five treatment groups as described above for 10 conditions total per donor.
Cell counts and viability were monitored every other day. When cells reached 3×10^6 cells/ml, 1.5×10^6 cells were sub-cultured into a new well of a 24-well gas permeable culture plate with 7 mL final volume of medium and the culture continued as described above.

[8] = system: CRC tumor fragment and SCS cultures; test: Caspase inhibition in tumor processing; assay type: cell-based, human
Method: Half of cultures contained media additionally supplemented with 2 μM of pan-caspase inhibitor Z-VAD-FMK which was replenished at each media exchange. Cultures were incubated at about 37° C. for a minimum of 18 days with a 50% medium exchange occurring every 2-3 days following culture day 5. Cell counts were performed on day 5 and at each medium exchange using the NC-200 Automated Cell Counter (ChemoMetec).

[9] = cytokine plus 300 IU/mL IL-2 vs IL-2 alone
[10] = on CD3+, CD4+ and CD8+ T cells, higher concentrations

OKT3: a human anti-CD3 monoclonal antibody
upregulation of activation markers on CD8+ T cells ([1]; highest for CD38, CD134, CD69): all assessed markers were upregulated to some extent
upregulation of activation markers on CD4+ T cells ([1]; highest for CD38, CD137, CD69): all assessed markers were upregulated to some extent
total cell number and fold expansion [2]: supported T cell expansion, but did not substantially impact total cell number; also recorded: observed to be largely similar

Urelumab: an agonist CD137 receptor antibody
41BB expression ([3]; on CD4 T cells and CD8+ T cells): promoted 41BB expression

IL-21: recombinant cytokine
percent naïve and central memory T cells at Day 6 ([4]; cytokine plus 300 IU/mL IL-2): measured increase in the percent naïve and central memory T cells
CD3+ cells/mL on Day 6 [4, 9]: increase in CD3+ cells/mL on Day 6

Varlilumab: an agonist anti-CD27 antibody
41BB expression [3, 10]: promoted 41BB and CD107a expression
CD107a expression [3, 10]: promoted 41BB and CD107a expression

IL-15: recombinant cytokine
percent naïve and central memory T cells at Day 6 ([4]; cytokine plus 300 IU/mL IL-2): measured increase in the percent naïve and central memory T cells
CD3+ cells/mL on Day 6 [4, 9]: increase in CD3+ cells/mL on Day 6
dose response of cell number ([5]; 62.5 IU/ml-1000 IU/ml): dose dependent response, wherein cell number increased with increasing concentration

Oxelumab: anti-OX40L antibody
percent naïve and central memory T cells at Day 6 ([4]; antibody plus IL-2 vs IL-2 alone, MK-1248 at highest concentration tested): little effect on the percent of naïve and central memory T cells
CD3+ cells/mL on Day 6 ([4]; highest concentration tested, 50 μg/mL, vs IL-2 alone): increase in CD3+ cells/mL on Day 6
viable cell counts [5]: consistently higher viable cell counts than the DMSO treatment control

COC(=O)C[C@H](NC(=O)[C@H](C)NC(=O)[C@@H](NC(=O)OCc1ccccc1)C(C)C)C(=O)CF [Z-VAD-FMK, carbobenzoxy-valyl-alanyl-aspartyl-[O-methyl]-fluoromethylketone] (Cbz-Val-Ala-Asp(OMe)-CH2F)
cell growth (total cell number) ([6]; continuous inhibition (replenished each media exchange)): showed the greatest cell growth across donors
cell growth (total cell number) ([6]; transient treatment (day 0 only)): grew similarly
number of CD3+ cells/mL on Day 6 ([4]; concentrations higher than 0.2 μg/mL, vs IL-2 alone): substantially increased the number of CD3+ cells/mL on Day 6
percent of naïve and central memory T cells ([4]; vs cultures expanded just with IL-2): had no effect on the percent of naïve and central memory T cells
total viable cell number and viability ([7]; inhibitor continuous, listed as caspase inhibitor): outperformed the other conditions; also recorded: outperforming the transient condition
total viable cell number and viability ([7]; inhibitor transient): outperformed the other conditions
cell viability ([8]; SCS culture, 2 μM): Cell viability was similarly high
outgrowth of T cells ([8]; SCS culture, 2 μM): outgrowth of T cells was not observed for the SCS conditions
cell viability ([8]; tumor fragment-derived culture, 2 μM): cell viability for this condition was also high
outgrowth of cells (fold expansion, total viable cells) ([8]; tumor fragment-derived culture, 2 μM replenished at each media exchange): outgrowth of cells was superior in the tumor fragment-derived condition containing the pan-caspase inhibitor
viable cell counts [5]: consistently higher viable cell counts than the DMSO treatment control

Pembrolizumab: anti-PD1 antibody
PD1 expression ([3]; on CD4 T cells): decreased PD1 expression
viable cell counts [5]: consistently higher viable cell counts than the DMSO treatment control
